From PubChem BioAssay (NCI)
“And” between values parts separate entries of the source, which are not always exact repeats. Equal entries are not always repeated.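 Grown in 96-well plates, cells were treated for 48 hours with each compound at five concentrations. Insufficient inhibition: endpoint recorded as highest concentration tested. GI50 marks 50% less growth. The concentration for full growth arrest is given as TGI.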

Columns and labels:
Assay in all cases: DTP human tumour cell line panel, 48 h
DU-145 prostate = test system: DU-145 prostate
HS 578T breast = test system: HS 578T breast
IGROV1 ovarian = test system: IGROV1 ovarian
NCI-H226 lung = test system: NCI-H226 lung
NCI/ADR-RES ovarian = test system: NCI/ADR-RES ovarian
RPMI-8226 leukemia = test system: RPMI-8226 leukemia
RXF 393 renal = test system: RXF 393 renal
T-47D breast = test system: T-47D breast
TK-10 renal = test system: TK-10 renal
UACC-257 melanoma = test system: UACC-257 melanoma

SMILES	GI50 (DU-145 prostate)	TGI (DU-145 prostate)	GI50 (HS 578T breast)	TGI (HS 578T breast)	GI50 (IGROV1 ovarian)	TGI (IGROV1 ovarian)	GI50 (NCI-H226 lung)	TGI (NCI-H226 lung)	GI50 (NCI/ADR-RES ovarian)	TGI (NCI/ADR-RES ovarian)	GI50 (RPMI-8226 leukemia)	TGI (RPMI-8226 leukemia)	GI50 (RXF 393 renal)	GI50 (T-47D breast)	TGI (T-47D breast)	GI50 (TK-10 renal)	TGI (TK-10 renal)	GI50 (UACC-257 melanoma)	TGI (UACC-257 melanoma)	TGI (RXF 393 renal)
CN[C@@H](C)C(=O)N[C@H](C(=O)N1CCC[C@H]1C(=O)N[C@H]1c2ccccc2C[C@H]1OCC#CC#CCO[C@@H]1Cc2ccccc2[C@@H]1NC(=O)[C@@H]1CCCN1C(=O)[C@@H](NC(=O)[C@H](C)NC)C1CCCCC1)C1CCCCC1	5.35 µM	16.5 µM	4.62 µM	12.1 µM	6.41 µM	21 µM	19.6 µM	41.5 µM	12 µM	> 100 µM	1.44 µM	3.9 µM	< 0.0371 µM	1.81 µM	4.39 µM	19.7 µM	35.6 µM	13.5 µM	28.8 µM	
CCN(CC)CCCC(C)Nc1c2ccc(Cl)cc2nc2ccc(OC)cc12 (stereo unspecified)	2.28 µM	6.37 µM	2.46 µM	8.27 µM and 14.8 µM	3.21 µM	13.2 µM and 5.49 µM		10.7 µM	2.26 µM	9.69 µM and 7.81 µM		5.74 µM and 5.11 µM		2.59 µM	7.01 µM and 5.68 µM		11.8 µM and 13 µM		3.43 µM and 3.38 µM	2.53 µM
O=C1Nc2ccc(C(=O)c3ccco3)cc2/C1=C/c1cc(Cl)c(O)c(Cl)c1	4.75 µM	> 18.4 µM	4.94 µM	> 21.7 µM	3.36 µM	> 20.7 µM	6.98 µM	> 24.1 µM	9.61 µM	> 25 µM	4.02 µM	12.5 µM	2.77 µM	7.17 µM	> 25 µM	6.53 µM	> 23.9 µM	4.79 µM	17.9 µM	15.5 µM
COc1cc(Nc2nccc(Nc3ccc4c(C)[nH]nc4c3)n2)cc(OC)c1OC	2.44 µM	7.43 µM	0.604 µM	5.15 µM	0.858 µM	5.6 µM	1.01 µM	7.1 µM	4.39 µM	13.7 µM	5.21 µM	13.2 µM	0.683 µM	1.44 µM	7.46 µM	0.908 µM	3.88 µM	1.22 µM	5.96 µM	3.21 µM
O=S(=O)(NC1=NCCN1C(=S)SN1CCn2c1nsc2=S)c1ccc(Br)cc1	28.9 µM	> 100 µM	21.4 µM	67.2 µM	30.7 µM	95 µM	40.2 µM	> 100 µM	> 100 µM	> 100 µM	1.86 µM	37.2 µM	17.8 µM	43.5 µM	> 100 µM	22 µM	83.5 µM	46.6 µM	> 100 µM	51.4 µM
O=Cc1ccc(-c2cc(C=O)c(-c3cccs3)[nH]2)s1		75 µM and > 100 µM	> 100 µM	75 µM and > 100 µM	30.8 µM	75 µM and > 100 µM		40 µM	68.3 µM	75 µM and > 100 µM	79.1 µM	75 µM and > 100 µM	23.3 µM	18.2 µM	49.6 µM and > 100 µM	85 µM	75 µM and > 100 µM	> 100 µM	75 µM and > 100 µM	75 µM and > 100 µM
O=c1c2cc(Cl)ccc2oc2ccc(OCCCCCN3CCCCC3)cc12	6.4 µM	12.7 µM	6.16 µM	15.1 µM	6.77 µM	14.4 µM	8.74 µM	18.6 µM	5.47 µM	24.8 µM	3.6 µM	12.4 µM	1.86 µM	7.21 µM	17 µM	8.06 µM	15 µM	1.3 µM	3.2 µM	7.2 µM
CO[C@@H]1/C=C\C=C(/C)C(=O)NC2=CC(=O)C(NCCN(C)C)=C(C[C@@H](C)C[C@@H](OC)[C@@H](O)[C@H](C)/C=C(\C)[C@H]1OC(N)=O)C2=O	< 0.01 µM	5.13 µM and 12.4 µM		38.3 µM and 76.3 µM	0.0164 µM	1.85 µM and 1.99 µM		31.2 µM and 12.4 µM	5.55 µM and 17.7 µM	29.6 µM and 62.7 µM		19.6 µM and 6.32 µM		0.03 µM and 0.0574 µM	3.31 µM and 4.48 µM		24 µM and 34.7 µM	0.0196 µM	2.06 µM and 1.27 µM	11.8 µM and 10.8 µM
CC12OC(c3ccccc3)=CC(c3ccc(Cl)cc3)=C1C(c1ccccc1)=CC2=O (stereo unspecified)	> 100 µM	> 100 µM	> 100 µM	> 100 µM	> 100 µM	> 100 µM	68.1 µM	> 100 µM	55.9 µM	> 100 µM	17.3 µM	47.2 µM	19.1 µM	35.8 µM	> 100 µM	> 100 µM	> 100 µM	49.3 µM	> 100 µM	> 100 µM
CC[C@H](NC(=O)[C@H](C)NC)C(=O)N1C[C@@H](O)C[C@H]1Cc1c(-c2[nH]c3cc(F)ccc3c2C[C@@H]2C[C@H](O)CN2C(=O)[C@H](CC)NC(=O)[C@H](C)NC)[nH]c2cc(F)ccc12	> 100 µM	> 100 µM	> 23.7 µM	> 100 µM			> 100 µM	> 100 µM	> 100 µM	> 100 µM	12.8 µM	98 µM	2.27 µM	> 100 µM	> 100 µM	> 100 µM	> 100 µM	0.0431 µM	> 100 µM	> 20.1 µM
Cc1cc(C)c([O-])c(CN(C)CCN(C)Cc2cc(C)cc(C)c2[O-])c1.O=C([O-])c1cccc(C(=O)[O-])n1.[Ti+4]	4.57 µM	> 100 µM	2.29 µM	> 100 µM	3.2 µM	> 100 µM	2.35 µM	> 100 µM	2.71 µM	> 100 µM	1.37 µM	5.17 µM	1.42 µM	1.28 µM	> 100 µM	1.71 µM	5.47 µM			3.96 µM
COc1cc(/C=C/C(=O)CC(=O)/C=C/c2cc(OC)c(OC)c(OC)c2)cc(OC)c1OC	6.71 µM	31.9 µM	3 µM	9.51 µM	2.83 µM	8.22 µM	10.2 µM	> 100 µM	4.18 µM	> 100 µM			3.09 µM	3.98 µM	84.5 µM	4.08 µM	19.2 µM	3.23 µM	31.1 µM	8.84 µM
